# Where two headings read alike, the source gives them in different places.
# Assays:
# S. aureus = S. aureus bacterial proliferation assay; type: cell-based; conditions: for EC50: Staphylococcus aureus, read-out: S. aureus Proliferation EC50
# How it was run: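 Growth in BHI with 25 mg/L Ca2+ and 12.5 mg/L Mg2+; log-phase cultures diluted to OD600 0.017 and exposed to compounds at 100 μM–46 nM (3-fold series). Stagnant 37 °C incubation, OD600 read at 6–8 h, corrected with bacteria-free plates; EC50 by variable-slope nonlinear regression.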
# native MDH = target: T1, native MDH (Sus scrofa, UniProt P00346); assay: Native MDH enzymatic activity counter-screen; type: biochemical, pig; conditions: compounds added after refolding and EDTA quench, read-out: Biochemical Assay IC50 Native MDH Activity
# T1 construct: soluble pig heart MDH from Roche, product #10127248001; purchased Roche 10127248001; host or cells: pig heart
# T1 sequence (P00346 25-338): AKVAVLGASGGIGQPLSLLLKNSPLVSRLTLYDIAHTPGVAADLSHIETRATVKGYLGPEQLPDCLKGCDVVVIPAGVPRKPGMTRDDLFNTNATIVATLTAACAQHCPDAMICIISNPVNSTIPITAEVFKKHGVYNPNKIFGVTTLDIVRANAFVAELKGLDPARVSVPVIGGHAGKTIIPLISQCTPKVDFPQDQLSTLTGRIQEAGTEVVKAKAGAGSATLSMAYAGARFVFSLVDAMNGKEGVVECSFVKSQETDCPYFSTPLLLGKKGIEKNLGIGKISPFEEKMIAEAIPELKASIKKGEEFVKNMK
# Protocol: Counter-screening compounds for inhibition of native MDH enzymatic activity.
# Reagent Preparations & Assay Protocol: This assay was performed as described above for the GroEL/ES-dMDH refolding assay; however, the assay protocol differed in the sequence of compound addition to the assay plates. The refolding reactions were allowed to proceed for 45 min at 37° C. in the absence of test compounds (complete refolding of MDH occurs), then quenched with the EDTA stock. Compounds were then pin-transferred into the plates after the EDTA quenching step; thus, compounds effects are only possible by inhibiting the fully-refolded MDH reporter substrate. Next enzymatic activity of the refolded MDH was initiated by addition of 20 μL MDH enzymatic assay stock (20 mM sodium mesoxalate and 2.4 mM NADH in reaction buffer, 50 mM Tris pH 7.4, 50 mM KCl, 1 mM DTT), and followed by measuring the NADH absorbance in each well at 340 nm using a Molecular Devices SpectraMax Plus384 microplate reader
# A340 nm measurements were recorded at 0.5 minutes (start point) and at successive time points until the amount of NADH consumed reached ˜90% (end point, generally between 20-35 minutes). Compounds were tested in 8-point, 3-fold dilution series (62.5 μM to 29 nM during the reporter reaction) in clear, flat-bottom 384-well microtiter plates.
# DMSO was used as a negative control, and previously discovered native MDH inhibitors were used as positive controls. IC50 values for the test compounds were obtained by plotting the % inhibition results in GraphPad Prism 6 and analyzing by non-linear regression using the log (inhibitor) vs. response (variable slope) equation. Results presented represent the averages of IC50 values obtained from at least quadriplicate (duplicate of duplicate) replicates.
# [1] = Table 2, cation adjusted BHI media, OD600 at 6-8 h
# [2] = Table 3, cation adjusted BHI media, OD600 at 6-8 h
# [3] = Table 1, cation adjusted BHI media, OD600 at 6-8 h
Compound,S. aureus Proliferation EC50 (S. aureus; [1]),IC50 (native MDH; Table 2),IC50 (native MDH; Table 3),also measured
"Cc1cc(C(C#N)c2ccc(Cl)cc2)c(Cl)cc1NC(=O)c1cccc(F)c1 (centres unmarked) [Compound 80, N-(5-chloro-4-((4-chlorophenyl)(cyano)methyl)-2-methylphenyl)-3-fluorobenzamide]",> 100 µM,> 63 µM,,
"COc1ccc(C)cc1C(=O)Nc1cc(Cl)c(C(C#N)c2ccc(Cl)cc2)cc1C (centres unmarked) [Compound 59, N-(5-chloro-4-((4-chlorophenyl)(cyano)methyl)-2-methylphenyl)-2-methoxy-5-methylbenzamide]",> 100 µM,> 63 µM,,
O=C(Nc1ccc(CCc2ccccc2)cc1)c1cc(Cl)ccc1O [Compound 101],,,> 63 µM,EC50 (S. aureus; [2]): 83 µM
"Cc1cc(C(C#N)c2ccc(Cl)cc2)c(Cl)cc1NC(=O)c1ccc(F)cc1 (centres unmarked) [Compound 81, N-(5-chloro-4-((4-chlorophenyl)(cyano)methyl)-2-methylphenyl)-4-fluorobenzamide]",> 100 µM,> 63 µM,,
"Cc1cc(C(C#N)c2ccc(Cl)cc2)c(Cl)cc1NC(=O)c1cccc(Br)c1 (centres unmarked) [Compound 74, 3-bromo-N-(5-chloro-4-((4-chlorophenyl)(cyano)methyl)-2-methylphenyl)benzamide]",> 100 µM,> 63 µM,,
"COc1ccc(Cl)cc1C(=O)Nc1ccc(O)cc1 [Compound 114, 5-chloro-N-(4-hydroxyphenyl)-2-methoxybenzamide]",,,> 63 µM,EC50 (S. aureus; [2]): > 100 µM
"Cc1cc(C(C#N)c2ccc(Cl)cc2)c(Cl)cc1NC(=O)c1ccc(Br)cc1 (centres unmarked) [Compound 75, 4-bromo-N-(5-chloro-4-((4-chlorophenyl)(cyano)methyl)-2-methylphenyl)benzamide]",> 100 µM,> 63 µM,,
"COc1ccc(Cl)cc1C(=O)Nc1ccc(C(=O)O)cc1 [Compound 108, 4-(5-chloro-2-methoxybenzamido)benzoic acid]",,,> 63 µM,EC50 (S. aureus; [2]): > 100 µM
"COc1ccc(Cl)cc1C(=O)Nc1cc(Cl)c(C(C#N)c2ccc(Cl)cc2)cc1C (centres unmarked) [Compound 57, 5-chloro-N-(5-chloro-4-((4-chlorophenyl)(cyano)methyl)-2-methylphenyl)-2-methoxybenzamide]",> 100 µM,> 63 µM,> 63 µM,EC50 (S. aureus; [2]): > 100 µM
"O=C(Nc1ccc([N+](=O)[O-])cc1Cl)c1cc(Cl)ccc1O [Niclosamide, reference compound]",,,> 63 µM,EC50 (S. aureus; [3]): 0.074 µM; IC50 (native MDH; Table 1): > 63 µM
"Cc1ccc(O)c(C(=O)Nc2cc(Cl)c(C(C#N)c3ccc(Cl)cc3)cc2C)c1 (centres unmarked) [Compound 60, N-(5-chloro-4-((4-chlorophenyl)(cyano)methyl)-2-methylphenyl)-2-hydroxy-5-methylbenzamide]",1.3 µM,> 63 µM,,
"O=C(Nc1ccc(Oc2ccccc2)cc1)c1cc(Cl)ccc1O [Compound 93, 5-chloro-2-hydroxy-N-(4-phenoxyphenyl)benzamide]",,,> 63 µM,EC50 (S. aureus; [2]): 0.36 µM
"Cc1cc(C(C#N)c2ccc(Cl)cc2)c(Cl)cc1NC(=O)c1cc(Cl)ccc1O (centres unmarked) [Compound 58, 5-chloro-N-(5-chloro-4-((4-chlorophenyl)(cyano)methyl)-2-methylphenyl)-2-hydroxybenzamide]",,> 63 µM,> 63 µM,EC50 (S. aureus): 0.14 µM
"Cc1cc(C(C#N)c2ccc(Cl)cc2)c(Cl)cc1NC(=O)c1ccc(Cl)cc1O (centres unmarked) [Compound 56, 4-chloro-N-(5-chloro-4-((4-chlorophenyl)(cyano)methyl)-2-methylphenyl)-2-hydroxybenzamide]",,59 µM,,EC50 (S. aureus; [1]): 0.013 µM
"CC(=O)Nc1cc(Cl)c(C(C#N)c2ccc(Cl)cc2)cc1C (centres unmarked) [Compound 83, N-(5-chloro-4-((4-chlorophenyl)(cyano)methyl)-2-methylphenyl)acetamide]",> 100 µM,> 63 µM,,
"Cc1cc(C(C#N)c2ccc(Cl)cc2)c(Cl)cc1NC(=O)c1ccc(Cl)cc1 (centres unmarked) [Compound 78, 4-chloro-N-(5-chloro-4-((4-chlorophenyl)(cyano)methyl)-2-methylphenyl)benzamide]",> 100 µM,> 63 µM,,
"Cc1cc(C(C#N)c2ccc(Cl)cc2)c(Cl)cc1NC(=O)c1cccc(Cl)c1O (centres unmarked) [Compound 54, 3-chloro-N-(5-chloro-4-((4-chlorophenyl)(cyano)methyl)-2-methylphenyl)-2-hydroxybenzamide]",,57 µM,,EC50 (S. aureus; [1]): 0.56 µM
"Cc1cc(C(C#N)c2ccc(Cl)cc2)c(Cl)cc1NC(=O)c1cccc(N)c1 (centres unmarked) [Compound 71, 3-amino-N-(5-chloro-4-((4-chlorophenyl)(cyano)methyl)-2-methylphenyl)benzamide]",> 100 µM,> 63 µM,,
"Cc1cc(C(C#N)c2ccc(Cl)cc2)c(Cl)cc1NC(=O)c1cc(Br)cc(Br)c1O (centres unmarked) [Compound 46, 3,5-dibromo-N-(5-chloro-4-((4-chlorophenyl)(cyano)methyl)-2-methylphenyl)-2-hydroxybenzamide]",,2.3 µM,,EC50 (S. aureus; [1]): 0.22 µM
"Cc1cc(C(C#N)c2ccc(Cl)cc2)c(Cl)cc1NC(=O)c1cc(Br)ccc1O (centres unmarked) [Compound 50, 5-bromo-N-(5-chloro-4-((4-chlorophenyl)(cyano)methyl)-2-methylphenyl)-2-hydroxybenzamide]",,55 µM,,EC50 (S. aureus; [1]): 0.11 µM
"CC(=O)Nc1ccc(NC(=O)c2cc(Cl)ccc2O)cc1 [Compound 105, N-(4-acetamidophenyl)-5-chloro-2-hydroxybenzamide]",,,> 63 µM,EC50 (S. aureus; [2]): > 100 µM
"Cc1cc(C(C#N)c2ccc(Cl)cc2)c(Cl)cc1NC(=O)c1cccc(Br)c1O (centres unmarked) [Compound 48, 3-bromo-N-(5-chloro-4-((4-chlorophenyl)(cyano)methyl)-2-methylphenyl)-2-hydroxybenzamide]",,48 µM,,EC50 (S. aureus; [1]): 0.58 µM
"Cc1cc(C(C#N)c2ccc(Cl)cc2)c(Cl)cc1NC(=O)c1ccccc1 (centres unmarked) [Compound 82, N-(5-chloro-4-((4-chlorophenyl)(cyano)methyl)-2-methylphenyl)benzamide]",> 100 µM,> 63 µM,,
"COc1ccc(Cl)cc1C(=O)Nc1ccc(C(C#N)c2ccccc2)cc1 (centres unmarked) [Compound 84, 5-chloro-N-(4-(cyano(phenyl)methyl)phenyl)-2-methoxybenzamide]",,,> 63 µM,EC50 (S. aureus; [2]): > 100 µM
"COc1c(Cl)cc(Cl)cc1C(=O)Nc1cc(Cl)c(C(C#N)c2ccc(Cl)cc2)cc1C (centres unmarked) [Compound 51, 3,5-dichloro-N-(5-chloro-4-((4-chlorophenyl)(cyano)methyl)-2-methylphenyl)-2-methoxybenzamide]",> 100 µM,> 63 µM,,
"CC(=O)Oc1ccccc1C(=O)Nc1ncc([N+](=O)[O-])s1 [Nitazoxanide, reference compound]",,,,EC50 (S. aureus; [3]): 12 µM; IC50 (native MDH; Table 1): > 63 µM

# Reference: patent US20230406831A1, “COMPOUNDS AND METHODS OF INHIBITING BACTERIAL CHAPERONIN SYSTEMS” (THE TRUSTEES OF INDIANA UNIVERSITY, priority 2020, published 2023)
